Test results published in ChEMBL document CHEMBL4811318, “Pyrrolo[1,2-a]quinoxal-5-inium salts and 4,5-dihydropyrrolo[1,2-a]quinoxalines: Synthesis, activity and computational docking for protein tyrosine phosphatase 1B” (Bioorg Med Chem, 2021).

Tests used:
[1] = biological target: T1, Tyrosine-protein phosphatase non-receptor type 1 (Homo sapiens) (UniProt P18031); experiment: Inhibition of recombinant human PTP1B (1 to 322 residues) expressed in Escherichia coli at 1 uM using IR5 (1142 to 1153 residues) as substrate incubated for 30 mins by spectrophotometry analysis relative to control
T1 sequence (whole entry): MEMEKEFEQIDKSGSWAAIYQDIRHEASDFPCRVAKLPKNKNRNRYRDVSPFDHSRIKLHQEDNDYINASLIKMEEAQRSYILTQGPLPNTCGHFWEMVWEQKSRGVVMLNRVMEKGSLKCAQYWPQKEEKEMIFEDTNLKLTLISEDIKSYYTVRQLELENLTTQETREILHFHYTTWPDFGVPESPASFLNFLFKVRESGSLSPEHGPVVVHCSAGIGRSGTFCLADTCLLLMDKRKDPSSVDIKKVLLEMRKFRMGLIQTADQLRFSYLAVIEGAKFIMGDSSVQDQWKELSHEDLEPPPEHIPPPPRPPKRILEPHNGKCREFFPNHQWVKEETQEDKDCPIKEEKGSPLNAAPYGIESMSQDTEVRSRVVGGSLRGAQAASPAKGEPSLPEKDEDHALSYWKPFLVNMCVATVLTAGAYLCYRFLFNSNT

[2] = biological target: T2, Tyrosine-protein phosphatase non-receptor type 1 (Homo sapiens, UniProt P18031); experiment: Inhibition of recombinant human PTP1B (1 to 322 residues) expressed in Escherichia coli using pNPP as substrate
T2 sequence (P18031 whole entry): T1 sequence (whole entry)

[3] = biological target: T3, Tyrosine-protein phosphatase non-receptor type 2 (Homo sapiens, UniProt P17706); experiment: Inhibition of recombinant human TC-PTP (2 to 315 residues) expressed in Escherichia coli using pNPP as substrate
T3 sequence (P17706 whole entry): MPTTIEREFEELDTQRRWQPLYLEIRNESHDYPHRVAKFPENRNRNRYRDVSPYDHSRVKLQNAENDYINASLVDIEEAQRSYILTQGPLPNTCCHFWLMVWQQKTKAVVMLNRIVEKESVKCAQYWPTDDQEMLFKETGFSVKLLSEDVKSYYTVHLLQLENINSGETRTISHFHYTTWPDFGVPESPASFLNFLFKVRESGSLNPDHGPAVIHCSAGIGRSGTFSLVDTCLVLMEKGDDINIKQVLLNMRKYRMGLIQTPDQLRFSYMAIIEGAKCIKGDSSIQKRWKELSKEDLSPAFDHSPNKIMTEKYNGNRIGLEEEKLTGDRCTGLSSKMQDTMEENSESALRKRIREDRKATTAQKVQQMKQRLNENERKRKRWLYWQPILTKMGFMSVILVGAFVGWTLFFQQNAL

Homo sapiens = organism: Homo sapiens; experiment: Selectivity index, ratio of IC50 for recombinant human TC-PTP (2 to 315 residues) to IC50 for recombinant human PTP1B (1 to 322 residues) expressed in Escherichia coli
HepG2 = experiment: Cytotoxicity against human HepG2 cells assessed as […] cell viability at 50 uM measured after 24 hrs by MTT assay relative to control; format: cell-based; conditions: hepg2, 24 h
[4] = Stability of the compound measured up to 5 days; format: physicochemical; conditions: 120 h; time <=5 day
[5] = Stability of the compound measured after 5 days; format: physicochemical; conditions: 120 h; time 5 day
[6] = Stability of the compound measured after 2 months at 4 degreeC; format: physicochemical; conditions: 1460 h
C2C12 = experiment: Induction of glucose uptake in mouse C2C12 cells at 2 uM pretreated with insulin for 30 mins followed by compound treatment for 90 mins by fluorescence microplate reader assay relative to control; format: functional; conditions: 1.5 h
[7] = biological target: T2, Tyrosine-protein phosphatase non-receptor type 1; experiment: Inhibition of PTP1B (unknown origin)

| inhibition [1] | IC50 [2] | Structure (SMILES) | Activity (HepG2) | other results |
| --- | --- | --- | --- | --- |
| 56% | – | Cc1ccc2c(c1)NC(C)c1cccn1-2 (stereo not drawn) | – | – |
| – | 600 nM | Cc1nc2ccc(Cl)cc2n2cccc12 | > 90% | IC50 [3]: > 25000 nM; Ratio IC50 (Homo sapiens): > 41 |
| 56% | 1390 nM | COc1ccc2c(c1)NC(C)c1cccn1-2 (stereo not drawn) | > 90% | – |
| – | > 10000 nM | Cc1nc2cc(C(F)(F)F)ccc2n2cccc12 | > 90% | – |
| 56% | 450 nM | CC1Nc2ccc(Cl)cc2-n2cccc21 (stereo not drawn) | > 90% | IC50 [3]: > 5000 nM; Ratio IC50 (Homo sapiens): > 11.1 |
| 22% | – | Cc1cc2c(cc1C)[n+](C)c(C)c1cccn12.[I-] | > 90% | – |
| 22% | 830 nM | Cc1c2cccn2c2cc(Cl)ccc2[n+]1C.[I-] | > 90% | IC50 [3]: > 5000 nM; Ratio IC50 (Homo sapiens): > 6.02 |
| 22% | 320 nM | Cc1c2cccn2c2ccccc2[n+]1C.[I-] | > 90% | – |
| – | > 10000 nM | Cc1ccc2c(c1)nc(C)c1cccn12 | > 90% | – |
| 56% | 410 nM | CC1Nc2ccccc2-n2cccc21 (stereo not drawn) | > 90% | Stabilty [4]: Stable; Stabilty [5]: Unstable; Stabilty [6]: Stable |
| 56% | 950 nM | CC1Nc2cc(Cl)c(Cl)cc2-n2cccc21 (stereo not drawn) | > 90% | IC50 [3]: > 5000 nM; Ratio IC50 (Homo sapiens): > 5.26; Activity (C2C12): 150% |
| 56% | 510 nM | CC1c2cccn2-c2ccccc2N1C (stereo not drawn) | > 90% | IC50 [3]: 500 nM; Ratio IC50 (Homo sapiens): 0.98 |
| – | – | CC1(C)CC[C@]2(C(=O)O)CC[C@@H]3C(=CC[C@H]4[C@H]3CC[C@@H]3[C@@H]4CC[C@H](O[C@@H]4O[C@H](CO)[C@@H](O)[C@H](O)[C@H]4O)C3(C)C)[C@@H]2C1 | – | IC50 [7]: 1400 nM |
| 22% | 580 nM | Cc1c2cccn2c2ccc(C(F)(F)F)cc2[n+]1C.[I-] | > 90% | IC50 [3]: 410 nM; Ratio IC50 (Homo sapiens): 0.71 |
| 22% | > 10000 nM | COc1ccc2c(c1)[n+](C)c(C)c1cccn12.[I-] | > 90% | – |
| – | – | C=C(C)[C@@H]1CC[C@]2(C(=O)O)CC[C@]3(C)[C@H](CC[C@@H]4[C@@]5(C)CC[C@H](O)C(C)(C)[C@@H]5CC[C@]43C)[C@@H]12 [BETULINIC ACID] | – | IC50 [7]: 1500 nM |
| – | > 10000 nM | Cc1cc2nc(C)c3cccn3c2cc1C | > 90% | – |
| – | 570 nM | Cc1nc2cc(Cl)c(Cl)cc2n2cccc12 | > 90% | IC50 [3]: > 25000 nM; Ratio IC50 (Homo sapiens): > 43 |
| 56% | – | Cc1cc2c(cc1C)-n1cccc1C(C)N2 (stereo not drawn) | > 90% | – |
| – | – | C=C(C)[C@@H]1CC[C@]2(C)CC[C@]3(C)[C@H](CC[C@@H]4[C@@]5(C)CC[C@H](O)C(C)(C)[C@@H]5CC[C@]43C)[C@@H]12 [LUPEOL] | – | IC50 [7]: 560 nM |
| – | – | Cc1nc2ccccc2n2cccc12 | > 90% | IC50 [3]: 3950 nM; Ratio IC50 (Homo sapiens): 4 |
| 56% | – | CC1Nc2cc(C(F)(F)F)ccc2-n2cccc21 (stereo not drawn) | > 90% | – |
| 22% | 1910 nM | CCCC[n+]1c(C)c2cccn2c2ccccc21.[I-] | > 90% | – |
| – | > 10000 nM | COc1ccc2c(c1)nc(C)c1cccn12 | > 90% | – |
| – | – | c1ccc(Cc2nc3ccccc3n3cccc23)cc1 | – | IC50 [7]: 240 nM |
| – | – | CCCCCCS(=O)(=O)NC(=O)c1ccc(CSCc2ccc(-c3ccccc3)cc2)cc1 | – | IC50 [7]: 250 nM |
| 22% | > 10000 nM | Cc1ccc2c(c1)[n+](C)c(C)c1cccn12.[I-] | > 90% | – |
